In publication PMC6751662, “Pharmacological and functional similarities of the human neuropeptide Y system in C. elegans challenges phylogenetic views on the FLP/NPR system” (Cell Communication and Signaling : CCS, 2019):
Read-outs that look alike come from different tables or passages of the source. Ends that are not written are not given here.

Legend:
Format in all cases: cell-based, C. elegans
[1] = molecular target: T1, NPR-4b (Caenorhabditis elegans, UniProt A0A078BTK0); assay: cAMP reporter gene assay, Gi/o (inhibition of forskolin-induced cAMP), NPR-4b; conditions: for cAMP, x-fold of forskolin (mean), NPR-4b: 1 µM forskolin set to 1.00, mean of at least three independent experiments; for cAMP, x-fold of forskolin (mean), NPR-4b / Emax: transiently transfected HEK293 cells; for Emax: NPR-4b, forskolin (1 µM) set to 1.00, lower values correspond to high Gi/o activity, mean ± SEM of at least three independent experiments, SEM
T1 sequence (A0A078BTK0 1-376): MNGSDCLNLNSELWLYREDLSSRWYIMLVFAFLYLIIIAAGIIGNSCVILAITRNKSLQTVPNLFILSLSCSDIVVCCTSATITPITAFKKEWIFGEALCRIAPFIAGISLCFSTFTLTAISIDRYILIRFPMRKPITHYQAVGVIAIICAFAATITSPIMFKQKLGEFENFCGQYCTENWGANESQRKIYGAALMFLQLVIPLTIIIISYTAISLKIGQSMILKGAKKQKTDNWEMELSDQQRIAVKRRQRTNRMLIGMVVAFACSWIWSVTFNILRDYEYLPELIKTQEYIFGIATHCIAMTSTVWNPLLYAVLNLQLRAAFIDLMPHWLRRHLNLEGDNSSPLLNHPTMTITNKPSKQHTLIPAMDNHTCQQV
Method: (§1) Activation of Gs and Gi/o was assessed with a cAMP reporter gene assay. HEK293 cells grown to 70–80% confluency in 6-well plates were transiently co-transfected with vectors encoding the receptor and the cAMP reporter gene plasmid pGL4.29 [luc2P/CRE/Hygro] (Promega; 4 μg total, 1:1 ratio) using Metafectene Pro (3 μl/μg DNA; Biontex) following the manufacturer’s instructions. 16 h post transfection, the cells were seeded into white 384-well plates at a density of 20,000 cells/well. On the next day, the medium was removed and the cells were stimulated with 20 μl of peptide solution (or forskolin as positive control) in serum-free DMEM for 4 h. For measuring Gi/o activity, the peptide solutions additionally contained 1 μM forskolin to elevate cellular cAMP levels. After incubation, the luciferase substrate OneGlo in lysis buffer (Promega) was added and the luminescence was measured in a microplate reader Tecan Spark (Tecan).
(§2) For in vitro activation, data is presented as mean ± SEM of at least three independent experiments conducted in technical triplicate. […] For the C. elegans NPRs, we considered the strongest response elicited by any of the peptides downstream of a particular receptor as the receptor’s maximal signal. This may or may not be the biological maximum that can be reached by the ‘true’ endogenous agonist. For the human receptors, the response to the established endogenous agonist reflected the maximal signal.

[2] = molecular target: T2, NPR-3 (Caenorhabditis elegans, UniProt P90745); assay: cAMP reporter gene assay, Gi/o (inhibition of forskolin-induced cAMP), NPR-3; conditions: for cAMP, x-fold of forskolin (mean), NPR-3: 1 µM forskolin set to 1.00, transiently transfected HEK293 cells, mean of at least three independent experiments; for Emax: HEK293, read-out: Emax ± SEM [%]
T2 construct: expressed in transfected cells; host or cells: HEK293
T2 sequence (P90745 1-376): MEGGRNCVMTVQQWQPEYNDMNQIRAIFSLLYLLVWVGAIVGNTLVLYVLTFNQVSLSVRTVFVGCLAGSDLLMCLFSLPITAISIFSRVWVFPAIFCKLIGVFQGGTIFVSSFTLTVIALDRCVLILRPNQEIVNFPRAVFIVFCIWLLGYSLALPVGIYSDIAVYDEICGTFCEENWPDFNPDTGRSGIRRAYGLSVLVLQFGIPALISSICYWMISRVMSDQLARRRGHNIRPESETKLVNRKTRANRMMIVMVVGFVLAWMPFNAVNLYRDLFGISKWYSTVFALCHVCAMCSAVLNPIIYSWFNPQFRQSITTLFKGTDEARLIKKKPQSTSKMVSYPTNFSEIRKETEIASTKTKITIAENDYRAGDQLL
Method: as §1, with “(Tecan). Data were analyzed with GraphPad Prism 5.03 and are shown as fold of basal or fold of forskolin in case of Gαi/o activity.” for “(Tecan).”
as §2

[3] = molecular target: T3, NPR-11 (Caenorhabditis elegans, UniProt Q18179); assay: cAMP reporter gene assay, Gi/o (inhibition of forskolin-induced cAMP), NPR-11; conditions: for cAMP, x-fold of forskolin (mean), NPR-11: 1 µM forskolin set to 1.00, transiently transfected HEK293 cells, mean of at least three independent experiments; for Emax: HEK293, read-out: Emax ± SEM [%]
T3 construct: expressed in transfected cells; host or cells: HEK293, transient
T3 sequence (Q18179 1-402): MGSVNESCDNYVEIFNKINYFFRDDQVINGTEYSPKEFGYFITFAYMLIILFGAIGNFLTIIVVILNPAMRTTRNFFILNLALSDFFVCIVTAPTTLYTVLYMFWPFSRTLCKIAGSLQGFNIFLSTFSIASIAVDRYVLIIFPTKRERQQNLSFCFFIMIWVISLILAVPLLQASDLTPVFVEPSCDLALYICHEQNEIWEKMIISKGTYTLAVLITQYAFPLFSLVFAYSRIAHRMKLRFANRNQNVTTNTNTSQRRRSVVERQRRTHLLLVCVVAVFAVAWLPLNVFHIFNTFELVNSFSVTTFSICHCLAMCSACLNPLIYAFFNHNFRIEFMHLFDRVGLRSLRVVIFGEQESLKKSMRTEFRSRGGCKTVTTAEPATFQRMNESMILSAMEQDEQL
Method: as §1, with “(Tecan). Data were analyzed with GraphPad Prism 5.03 and are shown as fold of basal or fold of forskolin in case of Gαi/o activity.” for “(Tecan).”
as §2

[4] = molecular target: T4, NPR-5b (Caenorhabditis elegans, UniProt Q6F3C9); assay: cAMP reporter gene assay, Gi/o (with forskolin), NPR-5b; design: Emax: unit not given here; conditions: transiently transfected HEK293 cells; for cAMP, x-fold of forskolin (mean), NPR-5b: 1 µM forskolin set to 1.00, values > 1 = cAMP stimulation, mean of at least three independent experiments; for Emax / EC50: NPR-5b; for Emax: forskolin (1 µM) set to 1.00, increase of cAMP, mean ± SEM of at least three independent experiments, SEM; for EC50: full concentration-response curve, with 1 µM forskolin, increase of cAMP, at least three independent experiments
T4 sequence (Q6F3C9 1-433): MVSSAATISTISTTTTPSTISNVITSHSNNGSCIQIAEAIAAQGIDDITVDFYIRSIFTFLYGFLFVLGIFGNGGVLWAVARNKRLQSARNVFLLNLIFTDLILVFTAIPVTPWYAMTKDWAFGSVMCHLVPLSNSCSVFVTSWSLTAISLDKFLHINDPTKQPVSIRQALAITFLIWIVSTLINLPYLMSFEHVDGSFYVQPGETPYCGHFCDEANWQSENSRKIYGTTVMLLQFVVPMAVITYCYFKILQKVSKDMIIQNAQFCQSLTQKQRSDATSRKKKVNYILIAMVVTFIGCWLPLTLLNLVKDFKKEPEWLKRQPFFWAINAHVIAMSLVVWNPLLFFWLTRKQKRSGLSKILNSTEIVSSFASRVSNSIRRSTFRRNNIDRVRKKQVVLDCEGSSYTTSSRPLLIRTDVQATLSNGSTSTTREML
Method: as §1, §2

[5] = tested on: NPR-6; assay: cAMP reporter gene assay, Gi/o (inhibition of forskolin-induced cAMP), NPR-6; conditions: 1 µM forskolin set to 1.00, transiently transfected HEK293 cells, mean of at least three independent experiments
Method: as §1, with “(Tecan). Data were analyzed with GraphPad Prism 5.03 and are shown as fold of basal or fold of forskolin in case of Gαi/o activity.” for “(Tecan).”
as §2

cAMP, x-fold of forskolin (mean), NPR-4b ([1]; 0.1 µM peptide)	cAMP, x-fold of forskolin (mean), NPR-4b ([1]; 10 µM peptide)	cAMP, x-fold of forskolin (mean), NPR-3 ([2]; 0.1 µM peptide)	cAMP, x-fold of forskolin (mean), NPR-3 ([2]; 10 µM peptide)	cAMP, x-fold of forskolin (mean), NPR-11 ([3]; 0.1 µM peptide)	cAMP, x-fold of forskolin (mean), NPR-11 ([3]; 10 µM peptide)	cAMP, x-fold of forskolin (mean), NPR-5b ([4]; 0.1 µM peptide)	cAMP, x-fold of forskolin (mean), NPR-5b ([4]; 10 µM peptide)	Substance	cAMP, x-fold of forskolin (mean), NPR-6 ([5]; 0.1 µM peptide)	cAMP, x-fold of forskolin (mean), NPR-6 ([5]; 10 µM peptide)	Emax [1]	Emax ([3]; SEM)	EC50 ([3]; SEM)	Emax [4]	Emax ([2]; SEM)	EC50 ([2]; SEM)	EC50 [3]	EC50 [4]	EC50 [1]
1.07 x-fold of forskolin	0.57 x-fold of forskolin	0.84 x-fold of forskolin	1.15 x-fold of forskolin	0.71 x-fold of forskolin	0.20 x-fold of forskolin	0.88 x-fold of forskolin	1.61 x-fold of forskolin	EASAFGDIIGELKGKGLGGRMRF-NH2 [FLP-27, NPY-like C. elegans FLP with C-terminal RxRF/Ya signature]	1.02 x-fold of forskolin	0.88 x-fold of forskolin									
1.10 x-fold of forskolin	0.67 x-fold of forskolin	1.00 x-fold of forskolin	1.23 x-fold of forskolin	0.90 x-fold of forskolin	0.65 x-fold of forskolin	0.90 x-fold of forskolin	1.05 x-fold of forskolin	TPDINPAWYASRGIRPVGRF-NH2 [PrRP20, human prolactin-releasing peptide, 20 residues, reference compound]	0.96 x-fold of forskolin	1.19 x-fold of forskolin									
0.81 x-fold of forskolin	0.42 x-fold of forskolin	0.87 x-fold of forskolin	1.02 x-fold of forskolin	0.92 x-fold of forskolin	0.72 x-fold of forskolin	1.02 x-fold of forskolin	1.72 x-fold of forskolin	AGSDPNFLRF-NH2 [FLP-1-2, C. elegans FMRFamide-like peptide, C-terminally amidated, synthesized by SPPS]	0.94 x-fold of forskolin	0.29 x-fold of forskolin									

Second part, the substance before the results:

Substance	cAMP, x-fold of forskolin (mean), NPR-4b ([1]; 0.1 µM peptide)	cAMP, x-fold of forskolin (mean), NPR-4b ([1]; 10 µM peptide)	cAMP, x-fold of forskolin (mean), NPR-3 ([2]; 0.1 µM peptide)	cAMP, x-fold of forskolin (mean), NPR-3 ([2]; 10 µM peptide)	cAMP, x-fold of forskolin (mean), NPR-11 ([3]; 0.1 µM peptide)	cAMP, x-fold of forskolin (mean), NPR-11 ([3]; 10 µM peptide)	cAMP, x-fold of forskolin (mean), NPR-5b ([4]; 0.1 µM peptide)	cAMP, x-fold of forskolin (mean), NPR-5b ([4]; 10 µM peptide)	cAMP, x-fold of forskolin (mean), NPR-6 ([5]; 0.1 µM peptide)	cAMP, x-fold of forskolin (mean), NPR-6 ([5]; 10 µM peptide)	Emax [1]	Emax ([3]; SEM)	EC50 ([3]; SEM)	Emax [4]	Emax ([2]; SEM)	EC50 ([2]; SEM)	EC50 [3]	EC50 [4]	EC50 [1]
APLEPVYPGDNATPEQMAQYAADLRRYINMLTRPRY-NH2 [PP, human pancreatic polypeptide, reference compound]	1.05 x-fold of forskolin	1.14 x-fold of forskolin	1.02 x-fold of forskolin	1.25 x-fold of forskolin	0.37 x-fold of forskolin	0.14 x-fold of forskolin	0.86 x-fold of forskolin	0.96 x-fold of forskolin	1.01 x-fold of forskolin	1.00 x-fold of forskolin									
SEVPGVLRF-NH2 [FLP-18-5]											-0.6 ± 0.05%	-0.16 ± 0.08%	0.0794 µM	3.6 ± 0.22					
RGPSGPLRF-NH2 [FLP-15-2]											-0.65 ± 0.07%	-0.76 ± 0.11%		3.28 ± 1.7	-0.8 ± 0.09%	0.0501 µM	0.998 µM	6.65 µM	
GLGPRPLRF-NH2 [FLP-21]											-0.58 ± 0.07%	-0.72 ± 0.06%		3.8 ± 0.26	-0.59 ± 0.26%		0.102 µM	0.432 µM	0.358 µM
